In patent US12673947B2 (Cytosinlab Therapeutics Co., Ltd., priority 2020, dated 2026):

Assays:
MV4;11 cells = assay: MV4;11 in vitro inhibition of proliferation assay (CellTiter-Glo, 72 hours); format: cell-based; conditions: Homo sapiens, MV4-11, 72 h, IC50 class, read-out: Inhibitory activity of cell proliferation MV4;11
Excerpt: Biological Test Example 2: MV4;11 In Vitro Inhibition of Proliferation Assay
The MV4;11 cell lines were purchased from the cell bank of the Chinese Academy of Sciences, IMDM medium (Gibco, catalog number 12440), fetal bovine serum (Gibco, catalog number 10099141C), penicillin-streptomycin antibiotics (Gibco, catalog number 15140122), DMSO (Sigma, catalog number D2650), Celltiter-Glo kit (CTG) (Promega, catalog number G7573), 384-well clear flat-bottom black cell culture plate (Corning, catalog number 3764), D300e digital dispenser (Tecan, catalog number D300e), SpectraMax i3x microplate reader (MOLECULAR DEVICES, catalog number i3x)
MV4;11 cell was cultivated in IMDM, 10% fetal bovine serum, 1% penicillin-streptomycin antibiotics, and cell density was kept less than 1.0*10E6 cells per ml to ensure that it was always in logarithmic growth phase. Cell viability was greater than 95%.
The compounds to be tested was diluted by 3 times from 10 uM with DMSO to 9 concentrations. 60 nl diluted compound was added to the cell culture plate and three duplicates were set up.
The prepared MV4;11 cell suspension was added to the 384-well plate, and 20 microliters of cell suspension was added per well, i.e., each well contained 2000 MV4;11 cells, of which the final concentration of DMSO was 0.3%. The cell culture plate was placed in 37° C. and incubated in a 5% carbon dioxide incubator for 72 hours.
20 μL of Promega CellTiter-Glo reagent was added to per well, and the plate was incubated at room temperature for 10 minutes when the luminescence signals were stable. SpectraMax i3x microplate reader was used to read signals.
The original data was converted into inhibition rate, and the IC50 value (half inhibition concentration) of the compound was determined by fitting the nonlinear four-parameter curve.

FLT3 = target: T1, FLT3 (Homo sapiens, UniProt P36888); assay: FLT3 kinase in vitro inhibitory activity experiment (Caliper mobility shift, conversion rate); format: biochemical; conditions: IC50 class, read-out: Enzyme activity FLT3
T1 construct: purchased Carna 08-145
T1 sequence (P36888 27-993): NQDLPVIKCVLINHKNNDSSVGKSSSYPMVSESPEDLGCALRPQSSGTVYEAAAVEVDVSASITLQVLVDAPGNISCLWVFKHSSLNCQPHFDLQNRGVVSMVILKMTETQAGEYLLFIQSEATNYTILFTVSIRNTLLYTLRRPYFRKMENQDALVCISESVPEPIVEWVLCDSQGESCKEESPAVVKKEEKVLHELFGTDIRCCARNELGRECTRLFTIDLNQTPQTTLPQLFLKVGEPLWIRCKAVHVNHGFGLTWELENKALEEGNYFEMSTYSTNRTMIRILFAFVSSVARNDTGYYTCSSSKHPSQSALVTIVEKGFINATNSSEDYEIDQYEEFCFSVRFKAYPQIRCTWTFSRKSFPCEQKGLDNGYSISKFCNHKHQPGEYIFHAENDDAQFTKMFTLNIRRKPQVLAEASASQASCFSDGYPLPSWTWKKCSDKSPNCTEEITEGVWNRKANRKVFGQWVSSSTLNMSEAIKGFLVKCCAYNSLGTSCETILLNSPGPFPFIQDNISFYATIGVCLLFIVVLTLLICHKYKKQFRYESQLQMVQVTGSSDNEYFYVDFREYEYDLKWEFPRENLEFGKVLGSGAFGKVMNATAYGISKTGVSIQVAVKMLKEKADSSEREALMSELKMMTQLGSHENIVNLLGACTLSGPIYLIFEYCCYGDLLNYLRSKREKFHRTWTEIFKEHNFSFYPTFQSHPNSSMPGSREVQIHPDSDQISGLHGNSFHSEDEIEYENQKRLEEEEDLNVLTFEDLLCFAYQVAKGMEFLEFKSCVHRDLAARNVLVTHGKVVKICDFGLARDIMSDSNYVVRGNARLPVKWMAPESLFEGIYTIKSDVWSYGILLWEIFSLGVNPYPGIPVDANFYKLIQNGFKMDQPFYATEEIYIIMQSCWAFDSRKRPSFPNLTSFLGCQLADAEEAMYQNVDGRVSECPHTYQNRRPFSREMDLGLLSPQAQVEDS
Method: Biological Test Example 1: FLT3 Kinase In Vitro Inhibitory Activity Experiment
Centrifuge (manufacturer: Eppendorf, model: 5430), microplate reader (manufacturer: Perkin Elmer, model: Caliper EZ Reader II), Echo 550 (manufacturer: Labcyte, model: Echo 550)
1. Kinase Reaction Process
• (1) 1×Kinase buffer was prepared. • (2) Preparation of the serial compound dilutions: the initial stock (the concentration of the tested compound was 1 μM) was diluted by 3-fold into 10 concentrations, and was single-well detected. The compounds were series diluted to solutions of 10 different concentration (100-folds final concentration) in 384-well plates. 250 nl of solution was transferred to each well of 384-well plate by Echo550. 100% DMSO (250 nl) was added to negative control wells and positive control wells respectively. • (3) Kinase solution (2.5 times final concentration) was prepared with 1×Kinase buffer. • (4) 10 μL of kinase solution (2.5 times final concentration) was added to compound wells and positive control wells respectively: 1×Kinase buffer (10 μL) was added to the negative control wells. • (5) The solution was centrifuged at 1000 rpm for 30 seconds, shaked and mixed, and incubated at room temperature for 10 minutes. • (6) The mixed solution of ATP and Kinase substrate 2 (25/15 times final concentration) was prepared with 1×Kinase buffer. • (7) 15 μL of mixed solution ATP and Kinase substrate 2 (25/15 times final concentration) was added to initiated the reaction. • (8) 384 well plate was centrifuged at 1000 rpm for 30 seconds, shaked and mixed, then incubated at room temperature for 30 minutes. • (9) Stop solution (30 μL) was added to stop kinase reaction, and the solution was centrifuged at 1000 rpm for 30 seconds, shaked and mixed. • (10) The conversion rate was read with Caliper EZ Reader II. 2. Data Analysis Formula for Calculation
Wherein: Conversion %_sample is the reading of the sample conversion; Conversion %_min: negative control well.

Row | SMILES | IC50 (MV4;11 cells) [nM] | IC50 (FLT3) [nM]
1 | CCc1nc2c(N)ncc(-c3ccc(N4CCC(N5CCN(C)CC5)CC4)c(OC)c3)c2nc1N[C@H]1CC[C@H](O)C1 [Compound 69] | 100 to 500 | ≤ 10
2 | CCc1nc2c(N)ncc(-c3ccc(N4CCC(N5CCN(C)CC5)CC4)c(OC)c3)c2nc1NC1CCOC1 (centres unmarked) [Compound 79] | 10 to 100 | ≤ 10
3 | CCc1nc2c(N)ncc(-c3ccc(N4CCC(N5CCN(C)CC5)CC4)c(OC)c3)c2nc1NC1CCCOC1 (centres unmarked) [Compound 83] | 10 to 100 | ≤ 10
4 | CCc1nc2c(N)ncc(-c3ccc(N4CCC(N5CCN(C)CC5)CC4)c(OC)c3)c2nc1NCC1CCOCC1 [Compound 85] | 10 to 100 | ≤ 10
5 | CCc1nc2c(N)ncc(-c3ccc(N4CCC(N5CCN(C)CC5)CC4)c(OC)c3)c2nc1NC1CCCC1 [Compound 92] | 10 to 100 | ≤ 10
6 | [2H]C([2H])([2H])N1CCN(C2CCN(c3ccc(-c4cnc(N)c5nc(CC)c(NC6CCOCC6)nc45)cc3OC)CC2)CC1 [Compound 121] | 10 to 100 | ≤ 10
7 | CCc1nc2c(N)ncc(-c3cnn(C4CCN(C5CCN(C)CC5)CC4)c3)c2nc1NC1CCC(O)C1 (centres unmarked) [Compound 134, 3-((5-amino-3-ethyl-8-(1-(1′-methyl-[1,4′-bipiperidine]-4-yl)-1H-pyrazol-4-yl)pyridino[3,4-b]pyrazine-2-yl)amino)cyclopentan-1-ol] | 10 to 100 | ≤ 10
8 | CCc1nc2c(N)ncc(-c3cnn(C4CCN(C5CCN(C)CC5)CC4)c3)c2nc1NC1CCOCC1 [Compound 135] | 10 to 100 | ≤ 10
9 | CCc1nc2c(N)ncc(-c3cnn(C4CCN(C)CC4)c3)c2nc1NC1CCOCC1 [Compound 136] | 10 to 100 | ≤ 10
10 | CCc1nc2c(N)ncc(-c3ccn(C)n3)c2nc1NC1CCOCC1 [Compound 138] | > 500 | 100 to 500
11 | CCc1nc2c(N)ncc(-c3ccc(N4CCC(N5CCN(C)CC5)CC4)c(OC(F)F)c3)c2nc1NC1CCOCC1 [Compound 139] | 10 to 100 | ≤ 10

Results, then the compound that gave them:

Row | IC50 (MV4;11 cells) [nM] | IC50 (FLT3) [nM] | SMILES
12 | ≤ 10 | ≤ 10 | CCc1nc2c(N)ncc(-c3ccc(N4CCC(N5CCN(C)CC5)CC4)c(OC)c3)c2nc1N[C@@H]1CC[C@@H](O)C1 [Compound 70]
13 | 10 to 100 | ≤ 10 | CCc1nc2c(N)ncc(-c3ccc(N4CCC(N5CCN(C)CC5)CC4)c(OC)c3)c2nc1N[C@H]1CC[C@@H](O)C1 [Compound 71]
14 | ≤ 10 | ≤ 10 | CCc1nc2c(N)ncc(-c3ccc(N4CCC(N5CCN(C)CC5)CC4)c(OC)c3)c2nc1N[C@@H]1CC[C@H](O)C1 [Compound 72]
15 | 10 to 100 | ≤ 10 | CCc1nc2c(N)ncc(-c3ccc(N4CCC(N5CCN(C)CC5)CC4)c(OC)c3)c2nc1NC(C)C [Compound 77]
16 | 10 to 100 | ≤ 10 | CCc1nc2c(N)ncc(-c3ccc(N4CCC(N5CCN(C)CC5)CC4)c(OC)c3)c2nc1NC1CCCC1O (centres unmarked) [Compound 78]
